Experimental data taken from patent publication US20260116845A1, “LIPIDS AND COMPOSITIONS THEREOF” (Kernal Biologics, Inc., priority 2023, published 2026).

Key:
[1] = test system: B16F10 Cell Line; experiment: Transfection of B16F10 Cell Line with FLuc mRNA LNPs (ONE-Glo EX luciferase signal); format: cell-based; settings: 200 ng Fluc mRNA-LNP, 24 hours; Table 4
Method in brief: (§1)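 Firefly luciferase luminescence measured 24 h after transfection with 200 ng mRNA-LNP per well in Opti-MEM. Seeding: 5,000 cells/well for B16F10 and MC38.K, 20,000 for AML12. LNPs were pre-incubated 30 min with mouse serum; mRNA content determined by RiboGreen.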

[2] = test system: AML12 Cell Line; experiment: Transfection of AML12 Cell Line with FLuc mRNA LNPs (ONE-Glo EX luciferase signal); format: cell-based; settings: 200 ng Fluc mRNA-LNP, 24 hours; Table 4
Method in brief: as §1

[3] = test system: MC38.K Cell Line; experiment: Transfection of MC38.K Cell Line with FLuc mRNA LNPs (ONE-Glo EX luciferase signal); format: cell-based; settings: 200 ng Fluc mRNA-LNP, 24 hours; Table 4
Method in brief: as §1

[4] = test system: Liver; experiment: Ex-vivo luminescence signal from liver after IV Fluc mRNA LNPs in CD1 mice (IVIS); settings: tail vein 1.0 mg/kg Day 0 and Day 2, imaging 18 hours after second dose, Table 4

Compound | Total Luciferin Signal (RLU) In Vitro - B16F10 [1] [RLU] | Total Luciferin Signal (RLU) In Vitro - AML12 [2] [RLU] | Total Luciferin Signal (RLU) In Vitro - MC38.K [3] [RLU] | Total Liver Tissue Luciferin Signal (Photons/s) Ex-vivo - CD1 [4] [Photons/s] | Total Liver Tissue Luciferin Signal (Photons/s) In Vitro - CD1 [4] [Photons/s]
CCCCCCCCCOC(=O)C(C)CCCCCCN(CCO)CCCCCCCC(=O)OC(CCCCCCCC)CCCCCCCC (stereo not shown) [Compound 37] | 2.66E+06 | 7.63E+05 | 1.00E+06 | 6.65E+09 | 
CCCCCCCCCOC(=O)CCCCCCCN(CCCCCCC(C)C(=O)OC(CCCCCCCC)CCCCCCCC)CCOC(=O)CCCN(C)C (stereo not shown) [Compound 38, heptadecan-9-yl 8-((2-((4-(dimethylamino)butanoyl)oxy)ethyl)(8-(nonyloxy)-8-oxooctyl)amino)-2-methyloctanoate] | 2.75E+06 | 1.22E+06 | 2.06E+06 | 5.28E+07 | 
[2H]C([2H])(O)C([2H])([2H])N(CCCCCCCC(=O)OCCCCCCCCC)CCCCCCCC(=O)OC(CCCCCCCC)CCCCCCCC [Compound 39, heptadecan-9-yl 8-((2-hydroxyethyl-1,1,2,2-d4)(8-(nonyloxy)-8-oxooctyl)amino)octanoate] | 3.58E+05 | 6.92E+05 | 8.82E+05 |  | 7.86E+06
[2H]C([2H])(OC(=O)CCCN(C)C)C([2H])([2H])N(CCCCCCCC(=O)OCCCCCCCCC)CCCCCCCC(=O)OC(CCCCCCCC)CCCCCCCC [Compound 40, heptadecan-9-yl 8-((2-((4-(dimethylamino)butanoyl)oxy)ethyl-1,1,2,2-d4)(8-(nonyloxy)-8-oxooctyl)amino)octanoate] | 3.61E+06 | 4.13E+06 | 8.09E+06 | 1.12E+08 | 
CCCCCCCCCCCCN(CCO)CCCCCC(=O)OCCCCCCCCCCC [Compound 42] | 1.91E+04 | 2.36E+04 | 5.65E+04 |  | 2.04E+06
CC(C)CCCCCCCCOC(=O)CCCCCCCN(CCO)CCCCCCCC(=O)OCCCCCCCCC(C)C [Compound 45] | 1.98E+06 | 3.98E+05 | 1.09E+06 | 4.18E+08 | 
CCCCCCCCC(CCCCCCCF)C(=O)OCCCCCCCN(CCO)CCCCCCCOC(=O)CCCCCCCC=C(C)C (stereo not shown) [Compound 52, 7-((7-((2-(7-fluoroheptyl)decanoyl)oxy)heptyl)(2-hydroxyethyl)amino)heptyl 10-methylundec-9-enoate] | 2.53E+05 | 2.59E+05 | 4.31E+05 | 7.87E+09 | 
CCCCCCCCC(CCCCCCCF)OC(=O)CCCCCCCN(CCO)CCCCCC(=O)OC(CCCCCCCC)CCCCCC(C)C (stereo not shown) [Compound 55, 1-fluorohexadecan-8-yl 8-((2-hydroxyethyl)(6-((2-methylhexadecan-8-yl)oxy)-6-oxohexyl)amino)octanoate] | 1.10E+06 | 4.19E+05 | 1.80E+06 | 1.93E+10 | 
CCCCCCCCCOC(=O)CCCCCCCN(CCCCCCCC(=O)OC(CCCCCCCC)CCCCCCCCF)CCN(C)C (stereo not shown) [Compound 56, 1-fluoroheptadecan-9-yl 8-((2-(dimethylamino)ethyl)(8-(nonyloxy)-8-oxooctyl)amino)octanoate] | 1.54E+07 | 6.63E+06 | 2.52E+07 | 1.77E+09 | 
CCCCCCCCC(CCCCCCCCF)OC(=O)CCCCCCCN(CCO)CCCCCC(=O)OCCCCCCC(C)C (stereo not shown) [Compound 57, 1-fluoroheptadecan-9-yl 8-((2-hydroxyethyl)(6-((7-methyloctyl)oxy)-6-oxohexyl)amino)octanoate] | 1.27E+06 | 2.63E+06 | 1.42E+07 | 1.05E+10 | 
CCCCCCCCC(CCCCCCCC)OC(=O)CCCCCCCN(CCO)CCCCCCC(C)C(=O)OCCCCCCCCC(C)C (stereo not shown) [Compound 59, 9-methyldecyl 8-((8-(heptadecan-9-yloxy)-8-oxooctyl)(2-hydroxyethyl)amino)-2-methyloctanoate] | 6.17E+05 | 8.24E+05 | 8.40E+06 | 5.55E+09 | 
CCCCCCCCC(CCCCCCCCF)C(=O)OCCCCCCCN(CCO)CCCCCCCOC(=O)CCCCCCCCC(C)C (stereo not shown) [Compound 60, 7-((7-((10-fluoro-2-octyldecanoyl)oxy)heptyl)(2-hydroxyethyl)amino)heptyl 10-methylundecanoate] | 3.17E+05 | 8.00E+05 | 5.21E+06 | 3.00E+09 | 
CCCCCCCCCOC(=O)C(C)CCCCCCN(CCO)CCCCCCCC(=O)OC(CCCCCCCC)CCCCCCCCF (stereo not shown) [Compound 61, nonyl 8-((8-((1-fluoroheptadecan-9-yl)oxy)-8-oxooctyl)(2-hydroxyethyl)amino)-2-methyloctanoate] | 9.46E+05 | 8.13E+05 | 1.11E+07 | 1.38E+10 | 
CCCCCCCCCOC(=O)C(C)CCCCCCN(CCCCO)CCCCCCCC(=O)OC(CCCCCCCC)CCCCCCCC (stereo not shown) [Compound 62, nonyl 8-((8-(heptadecan-9-yloxy)-8-oxooctyl)(4-hydroxybutyl)amino)-2-methyloctanoate] | 2.73E+06 | 2.33E+06 | 3.47E+07 | 1.03E+10 | 
CCCCCCCCC(CCCCCCCCF)OC(=O)CCCCCN(CCCCO)CCCCCC(=O)OCCCCCCCCCCC(C)C (stereo not shown) [Compound 63, 1-fluoroheptadecan-9-yl 6-((4-hydroxybutyl)(6-((11-methyldodecyl)oxy)-6-oxohexyl)amino)hexanoate] | 6.91E+05 | 5.69E+05 | 1.35E+07 | 3.02E+09 | 
CCCCCCCCC(CCCCCCCCF)OC(=O)CCCCCN(CCCCO)CCCCC(C)C(=O)OCCCCCCCCCCC(C)C (stereo not shown) [Compound 64, 11-methyldodecyl 6-((6-((1-fluoroheptadecan-9-yl)oxy)-6-oxohexyl)(4-hydroxybutyl)amino)-2-methylhexanoate] | 1.10E+06 | 1.02E+06 | 2.41E+07 | 4.39E+09 | 
